ChEMBL document CHEMBL1201862, “PubChem BioAssay data set” (2004)
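Where inhibition never reached the appropriate level, the endpoint shown equals the highest concentration tested. Otherwise, values were interpolated linearly from a five-concentration, 48-hour dose response in 96-well plates. GI50: concentration for 50% inhibition of growth.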 Active and inactive are the calls of the source. No stated cut-off is given here; in the data, active = GI50 up to about 1.1 µM and inactive = higher.

Assays:
Assay in all cases: NCI tumour cell line growth inhibition, 48 h
NCI-H226 = test system: NCI-H226
OVCAR-5 = test system: OVCAR-5
SN12C = test system: SN12C
NCI/ADR-RES = test system: NCI/ADR-RES
U-251 = test system: U-251
OVCAR-4 = test system: OVCAR-4
M14 = test system: M14
OVCAR-3 = test system: OVCAR-3
SK-MEL-2 = test system: SK-MEL-2
MDA-N = test system: MDA-N
CCRF-CEM = test system: CCRF-CEM
COLO 205 = test system: COLO 205
SF-539 = test system: SF-539
K562 = test system: K562
SR = test system: SR
IGROV-1 = test system: IGROV-1
HCC 2998 = test system: HCC 2998
DU-145 = test system: DU-145
HOP-62 = test system: HOP-62
RPMI-8226 = test system: RPMI-8226

SMILES | GI50 (NCI-H226) | GI50 (OVCAR-5) | GI50 (SN12C) | GI50 (NCI/ADR-RES) | GI50 (U-251) | GI50 (OVCAR-4) | GI50 (M14) | GI50 (OVCAR-3) | GI50 (SK-MEL-2) | GI50 (MDA-N) | GI50 (CCRF-CEM) | GI50 (COLO 205) | GI50 (SF-539) | GI50 (K562) | GI50 (SR) | GI50 (IGROV-1) | GI50 (HCC 2998) | GI50 (DU-145) | GI50 (HOP-62) | GI50 (RPMI-8226)
NC(=O)c1cccc(OCC(O)CO)c1 (stereo not drawn) | > 100 µM (inactive) | > 100 µM (inactive) | > 100 µM (inactive) | > 100 µM (inactive) | > 100 µM (inactive) | > 100 µM (inactive) | > 100 µM (inactive) | > 100 µM (inactive) | > 100 µM (inactive) | > 100 µM (inactive) | > 100 µM (inactive) | > 100 µM (inactive) | > 100 µM (inactive) | > 100 µM (inactive) | > 100 µM (inactive) | > 100 µM (inactive) | > 100 µM (inactive) | > 100 µM (inactive) | > 100 µM (inactive) | –
CN(C)CCNc1nc2c(c(=O)n(C)c(=O)n2C)n1C | > 100 µM (inactive) | > 100 µM (inactive) | > 100 µM (inactive) | > 100 µM (inactive) | > 100 µM (inactive) | > 100 µM (inactive) | > 100 µM (inactive) | > 100 µM (inactive) | – | > 100 µM (inactive) | > 100 µM (inactive) | > 100 µM (inactive) | > 100 µM (inactive) | > 100 µM (inactive) | > 100 µM (inactive) | > 100 µM (inactive) | – | > 100 µM (inactive) | > 100 µM (inactive) | > 100 µM (inactive)
Cc1c2c(Cl)c3c(c(Cl)c2c(C)c2c(Cl)c4c(c(Cl)c12)C(c1ccccc1)(c1ccccc1)C4(c1ccccc1)c1ccccc1)C(c1ccccc1)(c1ccccc1)C3(c1ccccc1)c1ccccc1 | > 100 µM (inactive) | > 100 µM (inactive) | > 100 µM (inactive) | > 100 µM (inactive) | > 100 µM (inactive) | > 100 µM (inactive) | > 100 µM (inactive) | > 100 µM (inactive) | > 100 µM (inactive) | > 100 µM (inactive) | > 100 µM (inactive) | > 100 µM (inactive) | > 100 µM (inactive) | > 100 µM (inactive) | > 100 µM (inactive) | > 100 µM (inactive) | > 100 µM (inactive) | > 100 µM (inactive) | > 100 µM (inactive) | –
CCOc1ccc(/N=N/C2C(=O)N(C(=O)CC(=O)Nc3ccccc3)N=C2C)cc1 (stereo not drawn) | > 100 µM (inactive) | > 100 µM (inactive) | 82 µM (inactive) | 75.7 µM (inactive) | 34.8 µM (inactive) | > 100 µM (inactive) | 58.1 µM (inactive) | 53.8 µM (inactive) | 66.4 µM (inactive) | 2.68 µM (inactive) | > 100 µM (inactive) | > 100 µM (inactive) | 35.2 µM (inactive) | – | 27.4 µM (inactive) | 37.3 µM (inactive) | 40.9 µM (inactive) | > 100 µM (inactive) | 59.3 µM (inactive) | –
O=C(O)C1C2C=CC(O2)C1C(=O)NCc1cccnc1 (stereo not drawn) | > 100 µM (inactive) | > 100 µM (inactive) | > 100 µM (inactive) | > 100 µM (inactive) | > 100 µM (inactive) | > 100 µM (inactive) | > 100 µM (inactive) | > 100 µM (inactive) | > 100 µM (inactive) | > 100 µM (inactive) | > 100 µM (inactive) | > 100 µM (inactive) | > 100 µM (inactive) | > 100 µM (inactive) | > 100 µM (inactive) | > 100 µM (inactive) | – | > 100 µM (inactive) | > 100 µM (inactive) | > 100 µM (inactive)
CNc1cc(N)ccc1C(=O)N1CCC[C@H]1CO | 27.3 µM (inactive) | > 100 µM (inactive) | > 100 µM (inactive) | > 100 µM (inactive) | > 100 µM (inactive) | – | > 100 µM (inactive) | > 100 µM (inactive) | > 100 µM (inactive) | > 100 µM (inactive) | – | – | > 100 µM (inactive) | > 100 µM (inactive) | > 100 µM (inactive) | > 100 µM (inactive) | – | > 100 µM (inactive) | > 100 µM (inactive) | > 100 µM (inactive)
COc1cc(CCN)c(OC)c(OC)c1 | – | > 100 µM (inactive) | > 100 µM (inactive) | > 100 µM (inactive) | > 100 µM (inactive) | > 100 µM (inactive) | 58.7 µM (inactive) | > 100 µM (inactive) | > 100 µM (inactive) | 39.2 µM (inactive) | 34.8 µM (inactive) | > 100 µM (inactive) | – | 62.1 µM (inactive) | 50.8 µM (inactive) | > 100 µM (inactive) | – | > 100 µM (inactive) | > 100 µM (inactive) | 93.3 µM (inactive)
CCNCCNc1c2ccccc2nc2ccccc12 | – | 1.13 µM (inactive) | 0.938 µM (active) | 2.72 µM (inactive) | – | 1.14 µM (inactive) | 1.39 µM (inactive) | 4.05 µM (inactive) | 1.51 µM (inactive) | 1.28 µM (inactive) | 1.29 µM (inactive) | 0.822 µM (active) | 0.745 µM (active) | 0.551 µM (active) | 0.594 µM (active) | 1.88 µM (inactive) | 0.127 µM (active) | 1.62 µM (inactive) | 0.461 µM (active) | –
